Measurements as given in patent US6696492B1, “Use of L carnitine and its alkanoyl dervatives for the preparation of a medicament useful for the treatment of patients suffering from diabetic and/or dysmetabolic nephropathy” (Sigma-Tau Industrie Farmaceutiche Riunite S.p.A., priority 1999, dated 2004).

What was measured:
[1] = renally insufficient children; cited from earlier work
[2] = Tolerability in patients with diabetes mellitus and peripheral arteriopathy; assay type: in vivo, human; details: 6 months' treatment
[3] = Clinical pilot study, type 2 diabetes mellitus and diabetic nephropathy in the microalbuminuria stage; assay type: in vivo, human; details: after 6 months' treatment, 1.5 grams/day oral; before treatment 37.8±4.6; p<0.01; 8 patients
Method: (§1) Lastly, a clinical pilot study has been conducted in a small patient sample, consisting of 8 patients suffering from type 2 diabetes mellitus and diabetic nephropathy in the microalbuminuria stage without evidence of frank renal insufficiency and 10 patients suffering from type 2 diabetes mellitus and renal insufficiency (serum creatinine>2 mg/dl and creatinine clearance <40 ml/min).
(§2) Both patient groups were treated with 1.5 grams/day of PLC administered in three distinct doses of 500 mg at three different times of day (1 tablet after breakfast, lunch and dinner) for a total period of 6 months.

[4] = organ ischaemia and reperfusion; cited from earlier work
[5] = cited from earlier work
[6] = Clinical study: forearm blood flow by plethysmography, local intra-arterial PLC, then nitro-L-arginine; assay type: in vivo, human; details: 8 healthy volunteers, local intra-arterial administration
[7] = Clinical pilot study, type 2 diabetes mellitus and renal insufficiency; assay type: in vivo, human; details: after 6 months' treatment, 1.5 grams/day oral
Method: as §1, §2

[8] = Clinical physiology study: forearm blood flow by plethysmography, intravenous infusion of PLC; assay type: in vivo, human; details: 6 healthy volunteers, after 60-minute intravenous infusion at 12 micrograms per minute
Method: A clinical physiology study was conducted in human subjects for the purpose of establishing whether PLC was also capable of exerting a vasodilating action at the microcirculatory level. […] This study was conducted in 6 healthy volunteers, whose overall blood flow was measured by plethysmography in the forearm, both in basal conditions and after 60-minute intravenous infusion of PLC at the dose of 12 micrograms per minute. The choice of dose to be administered was based on kinetics calculations, in order to try and achieve a steady state plasma concentration of PLC similar to the one obtained with chronic oral administration of 2 grams of PLC.

SMILES | serum triglyceride levels [1] | side effects in man [2] | urinary microalbumin excretion rate [3] [mg/g creatinine] | damage induced by the ischaemia [4] | functional capability and perfusion of the peripheral nerves ([5]; streptozocin-diabetic rats (Hotta et al. 1996)) | plasma lipid levels (total cholesterol, triglycerides, LDL) ([5]; streptozocin-diabetic rats) | vasodilatory action [6] | 24-h proteinuria ([7]; before treatment 6.2±2.3, p<0.01, 10 patients) [g/24 h] | creatinine clearance ([7]; before treatment 34.6±4.6, spread ±7.3) [mL/min] | LDL ([7]; before treatment 169±15) [mg/dL] | triglycerides ([7]; before treatment 217±75 mg/dl) [m/dl] | increase in blood flow as compared to resting basal flow [8]
C[N+](C)(C)C[C@H](O)CC(=O)[O-] [L-carnitine] | reduces the serum triglyceride levels |  |  |  |  |  |  |  |  |  |  | 
CCC(=O)O[C@H](CC(=O)[O-])C[N+](C)(C)C [PLC, propionyl L-carnitine] |  | no severe unwanted effects | 21.3±5.1 | capable of reducing the damage induced by the ischaemia | capable of improving | reduced | confirmed the vasodilatory action | 3.1±1.2 | 42.7 | 158 ± 10 | 192±62 | approximately 25%
